Data set [1] is described as follows: on-resin RCM stapling (Rink amide MBHA), 16 mol% Ru catalyst 2 (Grubbs II), then TFA/TIS/H2O cleavage. Particulars: the molecule shown is the open-chain precursor, DCE, 40.0 °C.
Data set [2] is described as follows: on-resin RCM stapling (Rink amide MBHA), 16 mol% Z-selective Ru catalyst 7 (Dipp), then TFA/TIS/H2O cleavage. The settings on record: the molecule shown is the open-chain precursor, DCE, 40.0 °C.
Data set [3] can be described thus: on-resin RCM stapling (Rink amide MBHA), 16 mol% Ru catalyst 3 (Hoveyda-Grubbs II), then TFA/TIS/H2O cleavage. Particulars: the molecule shown is the open-chain precursor, DCE, 40.0 °C.
Data set [4] can be described thus: on-resin RCM stapling (Rink amide MBHA), 16 mol% Ru catalyst 4 (nitro-Hoveyda/Grela), then TFA/TIS/H2O cleavage. The settings on record: the molecule shown is the open-chain precursor, DCE, 40.0 °C.
Data set [5] is described as follows: on-resin RCM stapling (Rink amide MBHA), 16 mol% Ru catalyst 5 (o-tolyl NHC Hoveyda type), then TFA/TIS/H2O cleavage. The settings on record: the molecule shown is the open-chain precursor, DCE, 40.0 °C.
Data set [6] is described as follows: on-resin RCM stapling (Rink amide MBHA), 16 mol% Z-selective Ru catalyst 6 (Mes), then TFA/TIS/H2O cleavage. Particulars: the molecule shown is the open-chain precursor, 33-membered ring, DCE, 40.0 °C.

As for “Fmoc-Ile-Thr-Phe-S5-Asp-Leu-Leu-S5-Tyr-Tyr-Gly-Pro-NH-resin”, the ring closure, conversion by HPLC in data set [1] (21-membered ring) is 90%; in data set [2] (21-membered ring), 75%; in data set [3] (21-membered ring), 81%; in data set [4] (21-membered ring), 80%; in data set [5] (21-membered ring), 70%.

As to “Fmoc-Val-Asn-R8-Lys-Lys-Ile-Leu-Gly-Lys-S5-Ile-Lys-Val-Val-Lys-NH-resin”, the ring closure, conversion by HPLC in data set [1] (33-membered ring) amounted to 94%; in data set [6] it was 70%; in data set [2] (33-membered ring) it was 55%; in data set [3] (33-membered ring), 80%; in data set [4] (33-membered ring), 85%; in data set [5] (33-membered ring) it was 60%.

Source of the values: article PMC4618480.
